Measurements reported in patent publication US20250145946A1, “GENERATION OF PURE RETINAL CELLS FROM HUMAN PLURIPOTENT STEM CELLS” (Wisconsin Alumni Research Foundation, priority 2023, published 2025).

How the values were obtained:
[1] = test system: H9 human embryonic stem cells (hESCs); assay: qPCR analysis of neural and retinal gene expression during hPSC neural/retina differentiation; type: cell-based
Protocol: hPSCs (H9, IMR-90-4 and WC30) were maintained under E8/feeder-free culture condition and passaged at 1:20 ratio with Rock inhibitor. After each new passage, the cells were fed with E8 medium for another 1˜2 days to reach 30-40% confluence. To initiate retina differentiation, culture medium was replaced with Retina Induction Medium (RIM) containing Neural induction medium (NIM) comprising DMEM/F12 media containing 1% N2 and 1× nonessential amino acids (NEAA) supplemented with 10 μM SB431542 (TGF inhibitor, Stemgent, 04-0010-10); this new passage day was counted as day 0 (DO) of retina differentiation. Cells were then fed daily with RIM, or every other day based on the cell density. On day 4, the cells were dissociated by ReLeSR (STEM CELL) or EDTA and re-suspended in the fresh RIM containing 0.5 micromolar (μM) Rock inhibitor. Cell clusters were thereafter transferred to a cell culture flask and cultured in suspension. On day 5, the resulting cell spheres were fed with RIM without SB431542. […] At day 20, the spheres were cultured in Transition medium (DMEM/F12: Neurobasal (1:1) with 1% N2, 2% B27, 1×NEAA and 1×Glutamax) until analysis.
Total RNA was isolated with the RNeasy Plus Mini Kit according to the manufacturer's instructions. For quantitative PCR (qPCR), cDNA was synthesized using PrimeScript RT Reagent Kit (Takara). qPCR was performed using iTaq Universal SYBR Green Supermix (Bio-Rad). GAPDH gene was used as an internal control to equalize cDNA.
H9 human embryonic stem cells (hESCs) were differentiated to neuroepithelia by culture in chemically defined media as disclosed above and then treated with inhibitors against BMP (DMH1), TGF-beta (SB-431542, SB), or WNT (IWR1) pathways separately for 6 days during the neural induction process (FIG. 2a).
Because SOX1 expression was known to be absent in retinal progenitors (also shown in FIG. 7a), expression of SOX2 and SOX1 presented a simple determining marker for cortical vs. retinal progenitors.

hPSCs = assay: Single nucleus RNA-seq (snRNA-Seq) profiling of differentiating cells; type: cell-based, human; settings: day 12
Protocol: Differentiating cells at multiple time points (day 0-day 12) indicated below were digested and collected for nucleus isolation and library construction (Tao et al., 2024, Nat. Biotech. 12:1404-1416; https://doi.org/10.1038/s41587-023-01977-4). All libraries prepared in this way were processed by NovaSeq. Alignment of raw sequencing reads, and generation of feature barcode matrices were performed using Cellranger (7.1.0). Seurat (4.1.3) was used to process feature barcode matrices and analyze snRNA-Seq data32. All samples were processed under standard quality control metrics. Single cells with more than 300 unique genes (nFeature) and less than 15% or 20% mitochondrial gene reads (percent.mt) were selected for follow-up analysis. Additional procedures were used to exclude low quality cells and doublets in each sample (nFeature<6,000 and nCount<20,000). […] After quality control, all snRNA-Seq data were normalized using the SCTransform (v2) function in Seurat with mitochondria genes regressed out (Choudhary, S. et al., 2022, Genome Biol 23, 27). PCA and UMAP reduction, gene feature plots were done by using Seurat as well.
Single nucleus RNA-seq (snRNA-Seq) assays were performed to profile and compare the differentiating cells under the SB or SB+DMH1 conditions (FIG. 2d). On day 6, after filtering low quality and dead cells, 8,533 and 9,756 cells in the SB and SB+DMH1 groups were collected, respectively. Uniform manifold approximation and projection (UMAP) clustering identified 11 clusters in both conditions (FIG. 2e).
To verify this observation, cells were differentiated with only SB for the first 6 days to generate primitive neuroepithelial cells and then how the BMP pathway regulated retinal differentiation was investigated by treating the cells with or without DMH1 at day 6 (FIG. 2d). Cell nuclei were collected on day 12 for snRNA-Seq to compare differentiating cells in the control (medium without inhibitors) and under DMH1 conditions. […] UMAP clustering identified 13 clusters (FIGS. 2h-2j, FIG. 10a).

[2] = test system: H9 human embryonic stem cells (hESCs); assay: Flow cytometry of differentiating cells for SOX2, SOX1 and PAX6; type: cell-based; settings: day 12; FIG. 8a
Protocol: Flow cytometry was performed following manufacturer's instruction using Transcription Factor Buffer Set which is designed for transcription factor staining. Briefly, single cells were prepared using TrypLE Express Enzyme and fixed in the fixation buffer provided in the kit at 2-8° C. for 45 min. After 3 washings with the permeable buffer, the primary antibodies were added to cells for 45 min at 2-8° C. in a light-tight box. The cells were washed 3 times before incubation with fluorescently conjugated secondary antibodies for 45 mins at 2-8° C. in a light-tight box. After 3 times of washing, cells were suspended in the washing buffer and analyzed by flow cytometry (BD LSR or BD LSRII). Data analysis was performed using FlowJo. Antibodies used were: SOX2 (R&D Systems AF2018), SOX1 (R&D Systems AF3369), PAX6 Alexa Fluor 488 (BD Biosciences Cat #561664), SOX2-V450 (BD Biosciences Cat #561610), SOX1-PE (BD Biosciences Cat #561592), PAX6 (Covance Cat #PRB-278P), VSX2 (Exalpha, Cat #X1180P), CRX (Abnova, Cat #H00001406-M02), OPSIN (MilliporeSigma, Cat #AB5407). Due to the lack of retinal differentiation resulting from BMP inhibition, expression of retina genes was examined at multiple time points in SB and SB plus dorsomorphin homolog 1 (SB+DMH1), which was a well-established dual-SMAD inhibition condition for neural conversion (Chambers, S. M. et al., 2009, Nat Biotechnol 27:275-280). […]

[3] = inhibitor for 6 days during neural induction, vs control, qPCR, FIG. 2b
[4] = SB day 0-5, then DMH1 from day 6, vs control
[5] = inhibitor for 6 days during neural induction, qPCR, FIG. 2b

Compound | expression of neural genes including PAX6 and SOX1 [1, 3] | expression of retinal lineage-specific markers RAX and VSX2 [1, 3] | GLI3 expression (hPSCs; [4]) | MKI67 and NES expression levels in progenitor clusters (hPSCs; [4]) | expression of EFTFs PAX6, LHX2, SIX3 and OTX2 (hPSCs; [4]) | expression of BMP target genes ID1/2/4 (hPSCs; SB day 0-5, then DMH1 from day 6, FIG. 10b) | effect on retinal differentiation [1, 5] | expression of SOX1 (definitive neuroepithelial marker) [1, 5] | expression pattern of SOX1 over time ([1]; time course after day 6, SB condition vs BMP2 administration, FIG. 3c) | SOX1 and SOX2 double positive cells (definitive neuroepithelial cells) [2] [%]
CC(C)Oc1ccc(-c2cnc3c(-c4ccnc5ccccc45)cnn3c2)cc1 [DMH1] | efficiently induced | did not show much change | downregulated | much lower | much lower or even absent | much lower levels |  |  |  | 
O=C(Nc1cccc2cccnc12)c1ccc(N2C(=O)[C@@H]3[C@H](C2=O)[C@@H]2C=C[C@H]3C2)cc1 [IWR1] |  |  |  |  |  |  | did not have much effect |  |  | 
NC(=O)c1ccc(-c2nc(-c3ccc4c(c3)OCO4)c(-c3ccccn3)[nH]2)cc1 [SB] |  | highest expression level |  |  |  |  |  | low expression | increased steadily | 14
